This is an account of results in US20250270213A1, “PI3Ka INHIBITORS” (Synnovation Therapeutics, Inc., priority 2022, published 2025).

Molecules are shown by their SMILES.

The assay deals with T47D (PIK3CA H1047R) cells. Description: pS473 AKT assay with 2.5% FBS, T47D cells. In kind it is cell-based. To be noted: Homo sapiens, pSer473 AKT, DMEM with 2.5% FBS, 2 h treatment, read-out: T47D_IC50. A digest of the protocol: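 T47D (PIK3CA H1047R) cells were switched to DMEM with 2.5% FBS and exposed to compounds for 2 h. After paraformaldehyde fixation, pSer473 AKT was detected by in-cell ELISA (rabbit primary, HRP anti-rabbit secondary, chemiluminescence); IC50 values were fitted from the concentration series.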

As to `Cc1cc(C(C)Nc2ccc(Cl)nc2-c2cnn(C)c2)c2c(c1)c(=O)n(C)c1c2cnn1C1CCN(C[C@@H](C)O)CC1` (stereo partly drawn) [Compound 173, 9-[1-[[6-chloro-2-(1-methylpyrazol-4-yl)-3-pyridyl]amino]ethyl]-3-[1-[(2R)-2-hydroxypropyl]-4-piperidyl]-4,7-dimethyl-pyrazolo[3,4-c]isoquinolin-5-one], the IC50 is less than 1 µM.

With `Cc1cc(C(C)Nc2ccc(Cl)nc2-c2cnn(C)c2)c2c(c1)c(=O)n(C)c1c2cnn1C1CCN(C[C@H](C)O)CC1` (stereo partly drawn) [Compound 174, 9-[1-[[6-chloro-2-(1-methylpyrazol-4-yl)-3-pyridyl]amino]ethyl]-3-[1-[(2S)-2-hydroxypropyl]-4-piperidyl]-4,7-dimethyl-pyrazolo[3,4-c]isoquinolin-5-one], the IC50 was less than 1 µM.

As for `Cc1cc(C(C)Nc2ccc(Cl)nc2-c2ncn(C)n2)c2c(c1)c(=O)n(C)c1c2cnn1C1CCN(CC(C)(C)O)CC1` (centres unmarked) [Compound 175, 9-(1-((6-chloro-2-(1-methyl-1H-1,2,4-triazol-3-yl)pyridin-3-yl)amino)ethyl)-3-(1-(2-hydroxy-2-methylpropyl)piperidin-4-yl)-4,7-dimethyl-3,4-dihydro-5H-pyrazolo[3,4-c]isoquinolin-5-one], the IC50 is less than 1 µM.

For the molecule `Cc1cc(C(C)Nc2ccc(Cl)nc2-c2ncn(C)n2)c2c(c1)c(=O)n(C)c1c2cnn1C1CCNCC1` (centres unmarked) [Compound 176, 9-(1-((6-Chloro-2-(1-methyl-1H-1,2,4-triazol-3-yl)pyridin-3-yl)amino)ethyl)-4,7-dimethyl-3-(piperidin-4-yl)-3,4-dihydro-5H-pyrazolo[3,4-c]isoquinolin-5-one], the IC50 is less than 1 µM.

Turning to `Cc1cc(C(C)Nc2ccc(Cl)nc2-c2ncn(C)n2)c2c(c1)c(=O)n(C)c1c2cnn1C1CCN(CCO)CC1` (centres unmarked) [Compound 177, 9-[1-[[6-Chloro-2-(1-methyl-1,2,4-triazol-3-yl)-3-pyridyl]amino]ethyl]-3-[1-(2-hydroxyethyl)-4-piperidyl]-4,7-dimethyl-pyrazolo[3,4-c]isoquinolin-5-one], the IC50 is less than 1 µM.

With `Cc1cc(C(C)Nc2ccc(Cl)nc2-c2ncn(C)n2)c2c(c1)c(=O)n(C)c1c2cnn1C1CCN(Cc2nccn2C)CC1` (centres unmarked) [Compound 178, 9-(1-((6-chloro-2-(1-methyl-1H-1,2,4-triazol-3-yl)pyridin-3-yl)amino)ethyl)-4,7-dimethyl-3-(1-((1-methyl-1H-imidazol-2-yl)methyl)piperidin-4-yl)-3,4-dihydro-5H-pyrazolo[3,4-c]isoquinolin-5-one], the IC50 was less than 1 µM.

Take `Cc1cc(C(C)Nc2ccc(Cl)nc2-c2ncn(C)n2)c2c(c1)c(=O)n(C)c1c2cnn1C1CCN(C2COC2)CC1` (centres unmarked) [Compound 179, 9-(1-((6-chloro-2-(1-methyl-1H-1,2,4-triazol-3-yl)pyridin-3-yl)amino)ethyl)-4,7-dimethyl-3-(1-(oxetan-3-yl)piperidin-4-yl)-3,4-dihydro-5H-pyrazolo[3,4-c]isoquinolin-5-one]: the IC50 is less than 1 µM.

Turning to `Cc1cc(C(C)Nc2ccc(Cl)nc2-c2ncn(C)n2)c2c(c1)c(=O)n(C)c1c2cnn1C1CCN(CCC#N)CC1` (centres unmarked) [Compound 180, 3-[4-[9-[1-[[6-Chloro-2-(1-methyl-1,2,4-triazol-3-yl)-3-pyridyl]amino]ethyl]-4,7-dimethyl-5-oxo-pyrazolo[3,4-c]isoquinolin-3-yl]-1-piperidyl]propanenitrile], the IC50 is less than 1 µM.

For the molecule `Cc1cc(C(C)Nc2ccc(Cl)nc2-c2ncn(C)n2)c2c(c1)c(=O)n(C)c1c2cnn1C1CCN(CC(F)F)CC1` (centres unmarked) [Compound 181, 9-(1-((6-Chloro-2-(1-methyl-1H-1,2,4-triazol-3-yl)pyridin-3-yl)amino)ethyl)-3-(1-(2,2-difluoroethyl)piperidin-4-yl)-4,7-dimethyl-3,4-dihydro-5H-pyrazolo[3,4-c]isoquinolin-5-one], the IC50 was less than 1 µM.

Regarding `CC(=O)N1CCC(n2ncc3c4c(C(C)Nc5ccc(Cl)nc5-c5cnn(C)c5)cc(C)cc4c(=O)n(C)c32)CC1` (centres unmarked) [Compound 182, 3-(1-Acetylpiperidin-4-yl)-9-(1-((6-chloro-2-(1-methyl-1H-pyrazol-4-yl)pyridin-3-yl)amino)ethyl)-4,7-dimethyl-3,4-dihydro-5H-pyrazolo[3,4-c]isoquinolin-5-one], the IC50 was less than 1 µM.

For `Cc1cc(C(C)Nc2ccc(Cl)nc2N2CCC(O)CC2)c2c(c1)c(=O)n1c3c2cnn3CCC1` (centres unmarked) [Compound 291, 10-(1-((6-chloro-2-(4-hydroxypiperidin-1-yl)pyridin-3-yl)amino)ethyl)-8-methyl-4,5-dihydro-3H,6H-2,2a,5a-triazaaceanthrylen-6-one], the IC50 is less than 1 µM.

Turning to `CNC(=O)C1CCN(c2nc(Cl)ccc2NC(C)c2cc(C)cc3c(=O)n4c5c(cnn5CCC4)c23)CC1` (centres unmarked) [Compound 292, 1-(6-chloro-3-((1-(8-methyl-6-oxo-4,5-dihydro-3H,6H-2,2a,5a-triazaaceanthrylen-10-yl)ethyl)amino)pyridin-2-yl)-N-methylpiperidine-4-carboxamide], the IC50 was less than 1 µM.

For the molecule `CC(=O)N1CCN(c2nc(Cl)ccc2NC(C)c2cc(C)cc3c(=O)n4c5c(cnn5CCC4)c23)CC1` (centres unmarked) [Compound 293, 10-(1-((2-(4-acetylpiprerazin-1-yl)-6-chloropyridin-3-yl)amino)ethyl)-8-methyl-4,5-dihydro-3H,6H-2,2a,5a-triazaaceanthrylen-6-one], the IC50 is less than 1 µM.

As to `Cc1cc(C(C)Nc2ccc(Cl)nc2-c2nnco2)c2c(c1)c(=O)n1c3c2cnn3CCC1` (centres unmarked) [Compound 294, 10-(1-((6-chloro-2-(1,3,4-oxadiazol-2-yl)pyridin-3-yl)amino)ethyl)-8-methyl-4,5-dihydro-3H,6H-2,2a,5a-triazaaceanthrylen-6-one], the IC50 is less than 1 µM.

In the case of `Cc1cc(C(C)Nc2ccc(Cl)nc2-c2ncn(C)n2)c2c(c1)c(=O)n1c3c2cnn3CCC1` (centres unmarked) [Compound 296, 10-(1-((6-chloro-2-(1-methyl-1H-1,2,4-triazol-3-yl)pyridin-3-yl)amino)ethyl)-8-methyl-4,5-dihydro-3H,6H-2,2a,5a-triazaaceanthrylen-6-one], the IC50 was less than 1 µM.

Consider `Cc1cc(C(C)Nc2ccc(Cl)nc2-c2ncn(CCO)n2)c2c(c1)c(=O)n1c3c2cnn3CCC1` (centres unmarked) [Compound 297, 10-(1-((6-chloro-2-(1-(2-hydroxyethyl)-1H-1,2,4-triazol-3-yl)pyridin-3-yl)amino)ethyl)-8-methyl-4,5-dihydro-3H,6H-2,2a,5a-triazaaceanthrylen-6-one], for which the IC50 was less than 1 µM.

Consider `Cc1cc(C(C)Nc2ccc(Cl)nc2-c2nnn(C)n2)c2c(c1)c(=O)n1c3c2cnn3CCC1` (centres unmarked) [Compound 298, 10-(1-((6-chloro-2-(2-methyl-2H-tetrazol-5-yl)pyridin-3-yl)amino)ethyl)-8-methyl-4,5-dihydro-3H,6H-2,2a,5a-triazaaceanthrylen-6-one], for which the IC50 is less than 1 µM.

As to `Cc1cc(C(C)Nc2ccc(Cl)nc2-c2cnn(C3CCOCC3)c2)c2c(c1)c(=O)n1c3c2cnn3CCC1` (centres unmarked) [Compound 299, 10-(1-((6-chloro-2-(1-(tetrahydro-2H-pyran-4-yl)-1H-pyrazol-4-yl)pyridin-3-yl)amino)ethyl)-8-methyl-4,5-dihydro-3H,6H-2,2a,5a-triazaaceanthrylen-6-one], the IC50 is less than 1 µM.

Take `Cc1cc(C(C)Nc2ccc(Cl)nc2-c2cnn(CCO)c2)c2c(c1)c(=O)n1c3c2cnn3CCC1` (centres unmarked) [Compound 300, 10-(1-((6-chloro-2-(1-(2-hydroxyethyl)-1H-pyrazol-4-yl)pyridin-3-yl)amino)ethyl)-8-methyl-4,5-dihydro-3H,6H-2,2a,5a-triazaaceanthrylen-6-one]: the IC50 is less than 1 µM.

Take `Cc1cc(C(C)Nc2ccc(Cl)nc2-c2cnn(C3CCN(C)CC3)c2)c2c(c1)c(=O)n1c3c2cnn3CCC1` (centres unmarked) [Compound 301]: the IC50 is less than 1 µM.

As to `Cc1cc(C(C)Nc2ccc(Cl)nc2-c2cnn(C3CCCN(C)C3)c2)c2c(c1)c(=O)n1c3c2cnn3CCC1` (centres unmarked) [Compound 302], the IC50 is less than 1 µM.

`Cc1cc(C(C)Nc2ccc(Cl)nc2-c2cnn(C3CCN(C)C3)c2)c2c(c1)c(=O)n1c3c2cnn3CCC1` (centres unmarked) [Compound 303, 10-(1-((6-chloro-2-(1-(1-methylpyrrolidin-3-yl)-1H-pyrazol-4-yl)pyridin-3-yl)amino)ethyl)-8-methyl-4,5-dihydro-3H,6H-2,2a,5a-triazaaceanthrylen-6-one]: the IC50 is less than 1 µM.

For the molecule `Cc1cc(C(C)Nc2ccc(Cl)nc2-c2cnn(C3CN(C)C3)c2)c2c(c1)c(=O)n1c3c2cnn3CCC1` (centres unmarked) [Compound 304, 10-(1-((6-chloro-2-(1-(1-methylazetidin-3-yl)-1H-pyrazol-4-yl)pyridin-3-yl)amino)ethyl)-8-methyl-4,5-dihydro-3H,6H-2,2a,5a-triazaaceanthrylen-6-one], the IC50 was less than 1 µM.

For the molecule `Cc1cc(C(C)Nc2ccc(Cl)nc2-c2cnn(C3CCN(C(=O)N(C)C)CC3)c2)c2c(c1)c(=O)n1c3c2cnn3CCC1` (centres unmarked) [Compound 305, 4-(4-(6-chloro-3-((1-(8-methyl-6-oxo-4,5-dihydro-3H,6H-2,2a,5a-triazaaceanthrylen-10-yl)ethyl)amino)pyridin-2-yl)-1H-pyrazol-1-yl)-N,N-dimethylpiperidine-1-carboxamide], the IC50 is less than 1 µM.

For `Cc1cc(C(C)Nc2ccc(Cl)nc2-c2ccnc(C)c2)c2c(c1)c(=O)n1c3c2cnn3CCC1` (centres unmarked) [Compound 306, 10-(1-((6-chloro-2′-methyl-[2,4′-bipyridin]-3-yl)amino)ethyl)-8-methyl-4,5-dihydro-3H,6H-2,2a,5a-triazaaceanthrylen-6-one], the IC50 was less than 1 µM.

As for `Cc1cc(C(C)Nc2ccc(Cl)nc2-c2cccnc2)c2c(c1)c(=O)n1c3c2cnn3CCC1` (centres unmarked) [Compound 307, 10-(1-((6-chloro-[2,3′-bipyridin]-3-yl)amino)ethyl)-8-methyl-4,5-dihydro-3H,6H-2,2a,5a-triazaaceanthrylen-6-one], the IC50 is less than 1 µM.
